# Structures can show the parent of a compound that is named as a salt.
# What was measured:
# [1] = system: CO, lipid and cholesterol aggregates formations; test: Effect of PGN27 on CO, lipid and cholesterol aggregates formation
# [2] = system: plaque accumulation in the heart tissues; test: Drug treatment of asymptomatic induced atherosclerotic mice, histochemical analysis of heart tissues; settings: 5-10 mg/kg per day orally, 8 weeks
# [3] = system: thrombus, generated from the CP-Chl aggregates; test: Effect of PGN27 on dissolution of thrombus; settings: 2 mM, 1 hr
# CP aggregates formation = test: Screen of known drugs for prevention of CP aggregates formation; settings: for CP aggregates formation, dose dependence: sodium phosphate dibasic and calcium chloride 4 mM each
# [4] = system: plaque induced chronic inflammation; test: Drug treatment of mice with plaque induced chronic inflammation; settings: 5-10 mg/kg per day orally, 8 weeks
# CP aggregates [5] = test: Binding of PGN27 to CP aggregates and cyclic plaque assembly (CPA)
# CP aggregates [6] = test: Binding of proteins with calcium containing aggregates; settings: 2 μg protein, 37° C., 1 hr
# Protocol: (§1) The Proteins used for binding with the aggregates are diluted first in the PBS to make 1 mg/ml concentration and then stored at −20° C. as 50 μl aliquots. These samples are then thawed on ice and centrifuged (10,000 rpm, 10 min, 4° C.) to remove any precipitation and the supernatant containing only the soluble proteins are used for binding studies. To start with, for identification of proteins binding with calcium containing aggregates, a number of proteins are screened individually with the aggregates. Binding experiment is performed in 100 μl reaction (50 μl PBS buffer and 50 μl of individual aggregates) containing 2 μg of protein and the mixtures are incubated at 37° C. for 1 hr. For control experiments, protein (2 μg) is mixed in 100 μl PBS without aggregates. After the binding, the mixture is centrifuged (2500 rpm, 2 min, 20° C.) and the pellet is washed four times with 200 μl PBST (Tween 20, 0.05%). After each wash the supernatant is discarded and the complexes are transferred to a new microfuge tube to avoid any carry-over of the proteins. The calcium containing aggregates-protein complexes are suspended in 20 μl of PBS to which 5 μl of EDTA (25 mM final concentration) is added for solubilization of the complexes. Finally, the solublized samples are used for protein quantitation using protein estimation kit (Pierce, Ill.) and the data are used in the Microsoft Excel program to generate Graph 1 (FIG. 4). All the binding experiments and subsequent CPA experiments are carried out in low protein bind 1.7 ml centrifuge tubes (Effentorf, Calif.). For all the following binding experiments the same buffer, centrifugation and washing conditions are used.
# [7] = molecular target: iron-loaded abeta42 templates (Homo sapiens, UniProt P05067); test: Binding of proteins to iron-loaded abeta42 templates; settings: SDS-PAGE
# Source text: FIG. 46 illustrates an example involving the identification of proteins that bind to iron-loaded abeta42 templates. The iron-loaded abeta42 templates are combined with known and unknown cell extracts (CE) and subjected to CPA, as described herein. To determine which proteins successfully bind the templates, the final template complexes are suspended in denaturing sample buffer, boiled, and loaded into SDS-PAGE gel. The gels are then stained with coomassie blue or silver stain in order to visualize the binding proteins. […] In the negative control, no significant binding is observed when the proteins are incubated in the absence of the templates.
# In experiments such as these, known and unknown cell extract proteins that are used for the complex formation with the aggregates are diluted in PBS to a 1 mg/ml concentration and stored at −70° C. as 50 μl aliquots. These samples are thawed on ice and centrifuged (13000 rpm, 15 min, 4° C.) to remove any precipitation. The supernatant containing soluble proteins is used to form complexes with the aggregates. Various proteins are screened against the iron loaded abeta42 aggregates for examining their binding. Binding experiments are performed in PBS (50 μl, pH 7.3) containing 6.0 μg of iron loaded abeta 42 aggregates and 1.0 μg of each protein. The mixture is incubated at 37° C. for 1 hr. After that, the samples are centrifuged (9000 rpm, 9 min, 15° C.) and the complexes are washed five times with 100 μl PBST (PBS containing 0.05% of Tween 20). After each wash, the supernatant is discarded and the complexes are transferred to a new tube to avoid any carry-over of the proteins. The final complexes are suspended in 20 μl of PBS to which 5.0 μl of denaturing sample solublising buffer (Bio Rad, CA, USA) is added. After boiling the samples for 10 min they are loaded into 4-20% SDS-PAGE (Cambrex Bio Sci, ME, USA). The proteins in the gels are detected using coomassie blue or silver stain (Owl silver stain, Pierce, Ill., USA). All the binding and the CPA experiments are carried out in low protein bind 1.7 ml centrifuge tubes (Effentorf, Calif.).
# CO aggregates = test: Binding of proteins with calcium containing aggregates; settings: 2 μg protein, 37° C., 1 hr
# Protocol: as §1
# [8] = system: CP, CC, CO, and CaPPD aggregates; test: Binding of proteins with calcium containing aggregates (any of the four); settings: 2 μg protein, 37° C., 1 hr
# Protocol: as §1, with “The calcium containing aggregates-protein complexes are suspended in 20 μl of PBS to which 5 μl of EDTA (25 mM final concentration) is added for solubilization of the complexes.” left out, “All the binding experiments and subsequent CPA experiments are carried out in low protein bind 1.7 ml centrifuge tubes (Effentorf, Calif.). For all the following binding experiments the same buffer, centrifugation and washing conditions are used.” left out
# [9] = molecular target: T1, PLG attached to complexes of iron loaded abeta42 aggregates (Homo sapiens, UniProt P00747); test: Activation of complex-bound PLG by u-PA or t-PA; format: biochemical
# T1 construct: Lys-Plasminogen (PLG); purchased Enzyme Research Laboratories (IN, USA)
# Protocol: This example illustrates a method of evaluating the conformation and functionality of PLG attached to template complexes. Three groups of experiments are carried out to add the PLG at different layers of plaque complex formation. Group I includes three independent reactions containing both the PLG and BSA (0.5 μg each) that are added in the first cycle of the complex formation with the templates (5.0 μg). Group II includes three reactions to which both the PLG and BSA (0.5 μg each) are added in the first cycle of complex formation followed by another cycle of binding of the resulting complexes with the CE proteins (6.0 μg). Similarly, Group III includes three reactions each containing 5.0 μg of CE proteins and 5.0 μg of the abeta42 templates for complex formation in the first cycle of binding. The resulting complexes are subjected to another cycle of binding with both the PLG and BSA (0.5 μg each). […] After treating with the PLG activators, all the complexes are washed and finally suspended in 20 μl of PBS. After boiling the complexes for 10 min in sample solublizing buffer they are loaded into 4-20% gradient SDS-PAGE. Further, the gel is processed for silver staining and the results are documented for analysis. […]
# [10] = system: thrombus generated from the in vitro assembled plaques complexes; test: Thrombolytic assay with PLG cascade proteins; format: biochemical; settings: thrombus from cholesterol, lipids, CP and CO complexes
# Protocol: To examine this, both PLG and PLG activators are used to target these clots. Thrombolytic assays are carried out in 100 μl reaction containing thrombus, generated from 100 μl of aggregates or plaque complexes, 1 μg of PLG and 20 ng of u-PA or t-PA in PBS buffer. The reactions are incubated at 37° C. for 1 hr and after every 15 min the tubes are gently tapped to mix the contents. After 1 hr incubation, 1 ml of PBS is added to all the tubes and the samples are visually examined for dissolution of the thrombus.
# The thrombus generated from the cholesterol, lipids, CP, and CO complexes are incubated separately with PLG, u-PA and t-PA to examine whether these proteins individually could dissolve the clots.
# This could be due to the inhibition of u-PA by the PAI-1 thereby preventing the activation of the PLG. In the next experiment, the aggregates of CP-Cholesterol, CP-Lipids, CP-Cholesterol-Lipids, Cholesterol-Lipids, CO-Cholesterol and CO-Lipids are individually used in CPA for five cycles to assemble complexes followed by their thrombus generation.
# The example depicted in FIG. 18 illustrates the dissolution of thrombi by PLG and u-PA. […] Both the clots and the dissolved complexes are further examined under microscope to confirm the visual examination (FIGS. 18a, b, c and d). The thrombus formed in the urine is also dissolved by the action of PLG and u-PA.
# [11] = system: iron loaded abeta42 aggregates mixed with CE proteins; test: Proteolysis of amyloid plaque complexes assembled on iron loaded abeta42 aggregates; format: biochemical; settings: 20 ng protease, 37° C., 1 hr
# Protocol: This example illustrates the use of the invention to evaluate the proteolytic degradation of the amyloid complexes. For example, iron loaded abeta42 aggregates are mixed with CE proteins, and the resulting template complexes are treated with five different serine proteases. More specifically, nine independent reactions are carried out with each containing 5.0 μg of the iron-loaded aggregates of abeta42 and 6.0 μg of the CE proteins. After incubation and washing, the complexes are suspended in 50 μl of PBS. The nine complexes are sub-divided into two groups, with six individual complexes comprising Group I and three complexes comprising Group II. In order to interrogate the role of the plasminogen (PLG) activation system, which is implicated in the catabolism of amyloid peptides as well as the pathobiology of amyloid diseases (Melchor J P et al, 2003; Van Nostrand W E et al, 1999; Kranenburg O, 2005), the Group II complexes are subjected to another cycle of binding with both PLG (0.5 μg) and BSA (0.5 μg) proteins. After binding and washing, the PLG and BSA bound plaques complexes are suspended in 50 μl of PBS.
# For proteolysis analysis, five of the six Group I template complexes are incubated with 20 ng of each protease (plasnin, chymotrypsin, trypsin, proteinase K and urokinase). The remaining complex is used as a control without protease treatment. Among three complexes of the Group II containing PLG attached to them, one is treated with u-PA (20 ng), a second is treated with t-PA (20 ng) and the third complex is used as a control without protease treatment. All these plaque complexes are incubated at 37° C. for 1 hr and after every 15 min, the tubes are gently tapped in order to encourage mixing. After washing, both the proteases-treated and control plaque complexes are suspended in 20 μl PBS. The complexes are boiled for 10 min with sample solubilizing buffer and loaded in to 4-20% gradient SDS-PAGE. Further, the gels are processed for silver staining and the results are documented for further analysis.
# Chain of iron-loaded abeta42 templates (P05067 672-713 limits assumed): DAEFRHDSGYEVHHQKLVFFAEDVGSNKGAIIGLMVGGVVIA
# T1 sequence (P00747 97-810, one chain of several): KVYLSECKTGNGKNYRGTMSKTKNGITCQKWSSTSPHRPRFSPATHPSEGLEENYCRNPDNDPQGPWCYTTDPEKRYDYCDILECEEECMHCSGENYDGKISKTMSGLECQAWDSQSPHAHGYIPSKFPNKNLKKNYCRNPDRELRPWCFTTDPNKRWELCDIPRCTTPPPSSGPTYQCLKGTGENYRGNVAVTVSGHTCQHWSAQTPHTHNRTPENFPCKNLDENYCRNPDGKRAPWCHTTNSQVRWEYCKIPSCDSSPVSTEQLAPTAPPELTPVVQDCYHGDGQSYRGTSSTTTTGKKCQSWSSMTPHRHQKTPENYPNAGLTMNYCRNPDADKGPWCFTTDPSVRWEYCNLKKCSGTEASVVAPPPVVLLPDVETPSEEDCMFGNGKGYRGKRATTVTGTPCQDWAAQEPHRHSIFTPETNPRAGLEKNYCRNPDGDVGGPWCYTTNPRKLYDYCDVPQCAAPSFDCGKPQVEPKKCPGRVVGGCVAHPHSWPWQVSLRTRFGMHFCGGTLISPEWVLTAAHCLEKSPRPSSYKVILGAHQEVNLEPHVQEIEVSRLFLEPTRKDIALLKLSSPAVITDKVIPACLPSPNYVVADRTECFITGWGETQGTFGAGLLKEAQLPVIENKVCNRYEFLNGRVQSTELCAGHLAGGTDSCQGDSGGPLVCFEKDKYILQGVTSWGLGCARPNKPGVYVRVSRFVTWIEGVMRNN
compound,measurement,setting,value
"CN(C)[C@@H]1C(O)=C(C(N)=O)C(=O)[C@@]2(O)C(O)=C3C(=O)c4c(O)cccc4[C@@](C)(O)[C@H]3C[C@@H]12 [PGN27, tetracycline hydrochloride]","Inhibition of CO, lipid and cholesterol aggregates formations",[1],did not inhibit
same,"Plaque accumulation in heart tissues, histochemical analysis",[2],reduced plaque accumulation
same,Dissolution of the thrombus,[3],no dissolution of the thrombus
same,CP aggregates formation in the presence of antibiotic,"CP aggregates formation; 5 mM drug, 5 mM sodium phosphate dibasic, 5 mM calcium chloride, 30 min 37° C.",prevented the CP aggregates formation
same,"CP aggregates formation, dose dependence",CP aggregates formation; 0.5 and 0.25 mM drug,CP aggregates formation occurred
same,"CP aggregates formation, dose dependence","CP aggregates formation; 4, 2 and 1 mM drug",did not show the CP aggregates formation
same,Symptoms of plaque inflammation compared to the control animal,[4],reduced symptoms of plaque inflammation
same,Binding with the CP aggregates (colorless to yellow),"CP aggregates [5]; 2 mM, 37° C., 30 min",specific and stable binding
same,Effect on binding of proteins with the CP aggregates in CPA,"CP aggregates [5]; CP-PGN27 complexes, four cycles of CPA, gel analysis",did not compete or affect binding of the proteins
C3: complement factor 3,Binding with the CP aggregates,CP aggregates [6],detectable binding
CB: complement factor B,Binding with iron-loaded abeta42 templates,[7],bind with the templates
CD: complement factor D,Binding with iron-loaded abeta42 templates,[7],bind with the templates
FIX: coagulation factor IX,Binding with the CP aggregates,CP aggregates [6],detectable binding
same,Binding with the CO aggregates,CO aggregates,detected for binding
same,Binding with iron-loaded abeta42 templates,[7],bind with the templates
HIN: human insulin,"Binding with any of the CP, CC, CO, CaPPD aggregates",[8],no detectable binding
same,Binding with iron-loaded abeta42 templates,[7],no detectable binding
PLG: plasminogen,Binding with the CP aggregates,CP aggregates [6],detectable binding
same,"Activation of PLG bound in first cycle compared to second cycle, increasing u-PA","[9]; 25, 50, 100 ng u-PA",exhibits resistance even when incubated with increased concentrations of the u-PA
same,Activation of PLG bound in first cycle compared to second cycle,[9]; u-PA (20 ng) or t-PA,detectable level of resistance to activation
same,"Dissolution of thrombus, protein incubated separately",[10],did not show any dissolution
same,Binding with iron-loaded abeta42 templates,[7],bind with the templates
ProS: protein S,Binding with the CP aggregates,CP aggregates [6],detectable binding
same,Binding with iron-loaded abeta42 templates,[7],bind with the templates
chymotrypsin,Degradation of proteins bound to the aggregates,[11],degraded
rhHGF: recombinant human hepatocyte growth factor,Binding with iron-loaded abeta42 templates,[7],bind with the templates
trypsin,Degradation of proteins bound to the aggregates,[11],degraded
